Reference: PMC6099232, “High V‐PPase activity is beneficial under high salt loads, but detrimental without salinity” (The New Phytologist, 2018)

Legend:
NbVHP2 = target: T1, NbVHP2 (Nicotiana benthamiana, UniProt A0A238MN04); assay: whole-vacuole patch clamp, PPi-induced proton pump current; assay type: biochemical; conditions: 150 μM PPi, 0 mV; 5 mM MgCl2, 100 mM K-gluconate, 0.1 mM CaCl2, pH 7.5; endogenous NbVHP background
T1 construct: gene NbPPA1.1; full-length cDNA, untagged, ubiquitin promoter in pCambia2200 with separate free eGFP; transient overexpression in N. benthamiana mesophyll; vacuoles also hold endogenous NbVHP1/2
T1 sequence (A0A238MN04 1-766): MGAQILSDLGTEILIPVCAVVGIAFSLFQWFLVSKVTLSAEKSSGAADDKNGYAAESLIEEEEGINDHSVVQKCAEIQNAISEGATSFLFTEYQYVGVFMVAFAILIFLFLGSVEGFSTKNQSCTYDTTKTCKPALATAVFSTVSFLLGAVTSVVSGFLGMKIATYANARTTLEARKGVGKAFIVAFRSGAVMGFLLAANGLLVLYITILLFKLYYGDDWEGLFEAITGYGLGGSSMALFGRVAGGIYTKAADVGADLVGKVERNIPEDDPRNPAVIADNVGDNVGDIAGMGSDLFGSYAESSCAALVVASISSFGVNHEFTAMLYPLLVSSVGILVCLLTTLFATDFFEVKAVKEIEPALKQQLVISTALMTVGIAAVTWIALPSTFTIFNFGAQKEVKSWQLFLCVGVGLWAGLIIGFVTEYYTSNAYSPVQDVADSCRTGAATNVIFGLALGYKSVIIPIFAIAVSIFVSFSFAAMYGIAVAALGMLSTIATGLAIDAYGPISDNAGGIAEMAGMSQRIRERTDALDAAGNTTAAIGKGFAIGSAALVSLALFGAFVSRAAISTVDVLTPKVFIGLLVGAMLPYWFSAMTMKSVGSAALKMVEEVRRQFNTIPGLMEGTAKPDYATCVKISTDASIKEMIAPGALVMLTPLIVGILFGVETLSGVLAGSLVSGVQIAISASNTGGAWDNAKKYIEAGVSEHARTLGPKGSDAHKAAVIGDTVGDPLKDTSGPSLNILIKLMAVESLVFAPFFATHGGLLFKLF

IPP1 = target: T2, IPP1 (Saccharomyces cerevisiae, UniProt P00817); assay: PPi hydrolysis activity of leaf protein extract; assay type: biochemical; conditions: activity compared with control
T2 construct: soluble PPase, cDNA under ubiquitin promoter in pCambia2200, transiently overexpressed in N. benthamiana leaves
T2 sequence (P00817 2-287): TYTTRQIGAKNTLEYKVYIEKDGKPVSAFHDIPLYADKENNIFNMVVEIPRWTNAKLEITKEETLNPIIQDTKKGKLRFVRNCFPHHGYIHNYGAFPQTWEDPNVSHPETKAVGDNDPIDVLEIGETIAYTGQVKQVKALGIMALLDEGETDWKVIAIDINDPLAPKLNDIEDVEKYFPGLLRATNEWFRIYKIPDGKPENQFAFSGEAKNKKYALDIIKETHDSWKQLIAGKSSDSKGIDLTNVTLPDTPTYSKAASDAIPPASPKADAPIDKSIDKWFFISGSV

[1] = substrate: O=P(O)(O)OP(=O)(O)O; assay: whole-vacuole patch clamp, PPi-induced proton pump current; assay type: biochemical, Arabidopsis thaliana; conditions: 0 mV, 5 mM MgCl2, 100 mM K-gluconate, 0.1 mM CaCl2, pH 7.5, about one-third of current from endogenous NbVHP1/2
[2] = substrate: O=P(O)(O)OP(=O)(O)O; assay: as above; assay type: biochemical, Nicotiana benthamiana; conditions: 0 mV, cytosolic pH 7.5, global fit of luminal pH 7.5 and 5.5, 5 mM MgCl2, 100 mM K-gluconate, 0.1 mM CaCl2, endogenous NbVHP background

## O=P(O)(O)OP(=O)(O)O [PPi, pyrophosphate]
NbVHP2
  whole-vacuole patch clamp, PPi-induced proton pump current: almost four times higher in vacuoles from NbVHP1‐ or NbVHP2‐overexpressing mesophyll cells
IPP1
  PPi hydrolysis activity of leaf protein extract: IPP1‐transformed N. benthamiana leaves exhibited a hydrolytic PPi activity

B1: AtVHP1 (Arabidopsis thaliana) (protein)
chain: MVAPALLPELWTEILVPICAVIGIAFSLFQWYVVSRVKLTSDLGASSSGGANNGKNGYGDYLIEEEEGVNDQSVVAKCAEIQTAISEGATSFLFTEYKYVGVFMIFFAAVIFVFLGSVEGFSTDNKPCTYDTTRTCKPALATAAFSTIAFVLGAVTSVLSGFLGMKIATYANARTTLEARKGVGKAFIVAFRSGAVMGFLLAASGLLVLYITINVFKIYYGDDWEGLFEAITGYGLGGSSMALFGRVGGGIYTKAADVGADLVGKIERNIPEDDPRNPAVIADNVGDNVGDIAGMGSDLFGSYAEASCAALVVASISSFGINHDFTAMCYPLLISSMGILVCLITTLFATDFFEIKLVKEIEPALKNQLIISTVIMTVGIAIVSWVGLPTSFTIFNFGTQKVVKNWQLFLCVCVGLWAGLIIGFVTEYYTSNAYSPVQDVADSCRTGAATNVIFGLALGYKSVIIPIFAIAISIFVSFSFAAMYGVAVAALGMLSTIATGLAIDAYGPISDNAGGIAEMAGMSHRIRERTDALDAAGNTTAAIGKGFAIGSAALVSLALFGAFVSRAGIHTVDVLTPKVIIGLLVGAMLPYWFSAMTMKSVGSAALKMVEEVRRQFNTIPGLMEGTAKPDYATCVKISTDASIKEMIPPGCLVMLTPLIVGFFFGVETLSGVLAGSLVSGVQIAISASNTGGAWDNAKKYIEAGVSEHAKSLGPKGSEPHKAAVIGDTIGDPLKDTSGPSLNILIKLMAVESLVFAPFFATHGGILFKYF
notes: untagged cDNA, ubiquitin promoter in pCambia2200 with separate free eGFP; transient overexpression in N. benthamiana mesophyll; about one-third of the current from endogenous NbVHP1/2
[1]
  Km: 75 ± 11 µM

B2: NbVHP1 (Nicotiana benthamiana) (protein)
chain: MGAALLPDLGTEIVIPVCAVIGIVFSLVQWYIVSNVKLTPESSSPSNNGKNGYGDYLIEEEEGINDQNVVVKCAEIQNAISEGATSFLFTEYQYVGIFMIAFAILIFLFLGSVEGFSTKSQPCTYNKEKLCKPALATAIFSTVSFLLGAITSVVSGFLGMKVATYANARTTLEARKGVGKAFIVAFRSGAVMGFLLAANGLLVLYIAINLFKLYYGDDWEGLFEAITGYGLGGSSMALFGRVGGGIYTKAADVGADLVGKVERNIPEDDPRNPAVIADNVGDNVGDIAGMGSDLFGSYAEASCAALVVASISSFGINHEFTAMLYPLLISSMGVLICLITTLFATDFFEIKAVKEIEPALKNQLIISTALMTVGIAIVTWTCLPSSFTIFNFGAQKVVKNWQLFLCVAVGLWAGLIIGFVTEYYTSNTYSPVQDVADSCRTGAATNVIFGLALGYKSVIIPIFAIAIAIFVSFSFAAMYGIAVAALGMLSTIATGLAIDAYGPISDNAGGIAEMAGMSHRIRERTDALDAAGNTTAAIGKGFAIGSAALVSLALFGAFVSRAAITTVDVLTPQVFIGLIVGAMLPYWFSAMTMKSVGSAALKMVEEVRRQFNTIPGLMEGTAKPDYATCVKISTDASIKEMIPPGALVMLTPLIVGIFFGVETLSGVLAGALVSGVQIAISASNTGGAWDNAKKYIEAGASEHARTLGPKGSEPHKAAVIGDTIGDPLKDTSGPSLNILIKLMAVESLVFAPFFATHGGLLFKIF
notes: full-length cDNA, untagged, ubiquitin promoter in pCambia2200 with separate free eGFP; transient overexpression in N. benthamiana mesophyll; vacuoles also hold endogenous NbVHP1/2; homodimer of c; 80 kDa polypeptide
[2]
  Km: 65 ± 9 µM
